Paper PMC4762374 (MedChemComm, 2015)

What was measured:
M.tb (H37Rv) = assay: Microplate alamar blue assay; type: cell-based, Mycobacterium tuberculosis; settings: against M.tb
CTX-M-14 (Purified) = CTX-M-14 (Purified) (Escherichia coli, UniProt Q9L5C7); assay: In vitro β-lactamase inhibition screening, CTX-M-14; type: biochemical
M. vaccae = assay: Kirby-Bauer antibacterial agar diffusion assay; type: cell-based
NDM-1 (Purified) = NDM-1 (Purified) (Klebsiella pneumoniae, UniProt C7C422); assay: In vitro β-lactamase inhibition screening, NDM-1; type: biochemical; settings: for inhibition of NDM-1 (in words): class B enzymes, effect of N-thiolation
NDM-1 (Purified), sequence (C7C422 29-270 limits assumed): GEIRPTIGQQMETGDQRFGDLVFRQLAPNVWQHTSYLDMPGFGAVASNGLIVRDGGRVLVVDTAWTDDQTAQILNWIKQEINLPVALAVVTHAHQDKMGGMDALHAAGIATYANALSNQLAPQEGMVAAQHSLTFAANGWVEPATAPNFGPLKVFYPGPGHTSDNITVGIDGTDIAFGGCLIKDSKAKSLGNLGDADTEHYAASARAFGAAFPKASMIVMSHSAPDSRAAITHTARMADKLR

C[C@@H](O)[C@H]1C(=O)N[C@@H]1N(OCc1ccccc1)C(=O)c1ccccc1 [Compound 12]
anti-TB activity (in words) (M.tb (H37Rv)): inactive | β-lactamase inhibitory activity (in words) (CTX-M-14 (Purified); after silyl removal, compared with CTX-M-14-directed compound 13): inactive

C[C@@H](O[Si](C)(C)C(C)(C)C)[C@H]1C(=O)N[C@@H]1N(OCc1ccccc1)C(=O)c1ccccc1 [Compound 11]
anti-TB activity (in words) (M.tb (H37Rv)): did not exhibit noticeable anti-TB activity

CSN1C(=O)[C@H]([C@@H](C)O[Si](C)(C)C(C)(C)C)[C@H]1N(OCc1ccccc1)C(=O)c1ccccc1 [Compound 13]
anti-TB activity (in words) (M.tb (H37Rv)): good activity | activity in the agar studies (in words) (M. vaccae): not very active

CC(C)(C)[Si](C)(C)N1C(=O)CC1N(OCc1ccccc1)C(=O)c1ccccc1 (centres unmarked) [Compound 6]
activity in the agar studies (in words) (M. vaccae): not very active

C=CCON(C(=O)c1ccc([N+](=O)[O-])cc1)C1CC(=O)N1 (centres unmarked) [Compound 7c]
inhibition of NDM-1 (in words) (NDM-1 (Purified)): inactive

CSN1C(=O)[C@@H](NC(=O)COc2ccccc2)[C@@H]1N(OCc1ccccc1)C(=O)c1cc([N+](=O)[O-])cc(C(F)(F)F)c1 (racemic) [Compound 24b]
inhibition of NDM-1 (in words) (NDM-1 (Purified)): potent inhibitor

C=CCON(C(=O)c1ccc([N+](=O)[O-])cc1)C1CC(=O)N1SC (centres unmarked) [Compound 8c]
inhibition of NDM-1 (in words) (NDM-1 (Purified)): potent inhibitor

O=C(Cc1ccccc1)N[C@@H]1C(=O)N[C@H]1N(OCc1ccccc1)C(=O)c1ccccc1 [Compound 18]
Ki (CTX-M-14 (Purified)): 50 nM | Ki (NDM-1 (Purified)): > 160000 nM

CCOc1ccc(C(=O)N(OCc2ccccc2)C2CC(=O)N2SC)cc1 (centres unmarked) [Compound 8b]
inhibition of NDM-1 (in words) (NDM-1 (Purified)): potent inhibitor

CCOc1ccc(C(=O)N(OCc2ccccc2)C2CC(=O)N2)cc1 (centres unmarked) [Compound 7b]
inhibition of NDM-1 (in words) (NDM-1 (Purified)): inactive

CSN1C(=O)[C@@H](NC(=O)COc2ccccc2)[C@@H]1N(OCc1ccccc1)C(=O)c1ccccc1 (racemic) [Compound 24a]
activity in the agar studies (in words) (M. vaccae): not very active
